Patent US5811463A, “Compositions and method for relaxing smooth muscles” (University of British Columbia, priority 1996, dated 1998)

How the values were obtained:
[1] = tested on: mean arterial pressure in conscious rats; assay: Depression of mean arterial pressure in conscious rats in vivo; set-up: species or system rat (Sprague-Dawley); conditions: intravenous bolus
Protocol: Likewise, in vivo tests may also be readily developed and utilized in order to determine the efficacy (and therapeutically effective amount) of the transition-metal nitrosyl complexes described above. For example, within one aspect of the present invention, a series of transition-metal nitrosyl complexes were tested in vivo for their ability to reduce the mean arterial blood pressure of conscious rats in vivo. Briefly, as described in greater detail below in Example 6, conscious, unrestrained rats were intravenous bolus injected with the transition-metal nitrosyl complexes. Five of the complexes were determined to dose-dependently reduce mean arterial pressure with maximum depressor effects which ranged from -36 to -59 mm Hg. Maximum depressor effects of sodium nitroprusside and nitroglycerin under similar conditions were -58 and -56 mm Hg, respectively. […] The results of the effects of the transition-metal nitrosyl complexes on the depression of mean arterial pressure in conscious rats in vivo are summarized in Example 5 and Table 1.
(§1) Examples 5-7 present in vitro and in vivo results of the evaluation of the efficiency of the transition-metal nitrosyl complexes in relaxing blood vessels and lowering blood pressure. Sprague-Dawley rats (300-400g) were used for all experiments. Each group consisted of 1-6 rats for the in vivo experiments and 3-6 aortic rings for the in vitro experiments. Each aortic ring was from a different rat.
Example 6 describes the results of the determination of the efficacy of the transition-metal nitrosyl complexes in reducing blood pressure of conscious, unrestrained rats. In these in vivo experiments, the depression of rat arterial pressure was measured as a function of transition-metal nitrosyl complex dose. Dose-response (pressure depression) curves were constructed and the capacities of the transition-metal nitrosyl complexes to reduce arterial pressure were compared and related to nitroglycerin and sodium nitroprusside. The results of these experiments are reported in terms of ED50 (effective dose to produce a 50% pressure depression response) and Emax (maximum decrease in blood pressure) and are summarized in Example 5, Table 1.
(§2) The rats were anaesthetized with halothane (4% in air for induction and 1.5% in air for surgery). A polyethylene cannula (PE50) was inserted into the left iliac artery for the measurement of mean arterial pressure (MAP) by a pressure transducer (P23DB, Gould Statham, Calif.). A PE50 cannula was also inserted into the iliac vein for the administration of the vehicle or a drug. The rats were then put into a small cage and given>6 hr to recover from the effects of anaesthesia and surgery before use. The rats were allowed to move freely during the recovery phase as well as during the conduction of the experiments as described in Wang and Pang, Br. J. Pharmacol. 103:2004-8, 1991. Only one dose-response curve of a metal nitrosyl complex, sodium nitroprusside, nitroglycerin or vehicle (0.9% NaCl solution or dimethylsulfoxide solution) was constructed in each rat. All drugs or vehicle were intravenous bolus injected at dose-intervals of 3-7 min, to allow the recovery of depressor responses, before the injection of the next higher dose.

[2] = tested on: phenylephrine pre-constricted rat aortic rings; assay: Relaxation of phenylephrine pre-constricted rat aortic rings in vitro; set-up: species or system rat (Sprague-Dawley); conditions: phenylephrine 10^-6 M pre-constricted rat aortic rings; for EC50: read-out: In vitro EC50 (effective concentration to produce a 50% relaxation response)
Source text: As noted above, the present invention also provides methods for relaxing smooth muscle in a warm-blooded animal (e.g., humans, chimps, cows, goats, pigs, dogs, cats, rats or mice) comprising the step of administering to the animal a therapeutically effective amount of a transition-metal nitrosyl complex as described above. Briefly, the efficacy (and therapeutically effective amount) of a particular transition-metal nitrosyl complex may be readily determined by both in vitro and in vivo techniques. See generally Blattner et al., Experiments on Isolated Smooth Muscle Preparations, Hugo Sachs Elektronik KG, 1980 (incorporated herein by reference in its entirety). For example, within one embodiment, a small animal such as a rat, rabbit, or guinea-pig is sacrificed and exsanguinated. The required tissue (e.g., artery, vein, stomach, ileum, jejunum, caecum, colon, uterus, spleen, trachea, seminal vesicle, ductus deferens, or corpus cavernosum) is removed and placed in an oxygenated physiological solution (e.g., Krebs or Tyrode solution). This tissue is then cut such that one end is attached to the bottom of a muscle bath, and the other end to a force-displacement transducer (for example, Grass FT-03-C, Quincy, Mass.) for isometric recording with a physiological recorder (Grass, Model 79G). An appropriate pre-load (0.5 to 10 grams, depending on the tissue) is then applied, and the tissue equilibrated in the bath for one hour prior to the start of the study.
The measurement of smooth muscle contractile response may then be performed essentially as described by Pang and Sutter in Blood Vessels 17:293-301, 1980 (incorporated herein by reference in its entirety). Briefly, a dose-response curve of an agonist (e.g., phenylephrine, norepinephrine) is first obtained by measuring contractile response of the muscle as a function of agonist concentration. Response to the agonist is then measured beginning with the addition of the lowest dose of agonist to the bath. Each dose is equilibrated in the bath for 2 to 6 minutes in order to assure a steady state response, prior to proceeding to the next higher dose.
Measurement of the effectiveness of smooth muscle relaxant compositions may then be determined by measurement of the smooth muscle relaxation response, in a manner analogous to contractile response. See generally Wang, Poon and Pang, J. Pharm. Exp. Ther. 265:112-119, 1993 (incorporated herein by reference in its entirety). Briefly, tissue is first contracted with an agonist such as phenylephrine, usually at a concentration which results in 90% of the tissue's maximum contractile response (referred to EC90). At the steady state phase of the contractile response to the agonist, a cumulative dose-response curve for the smooth muscle relaxant may be determined. For each concentration of relaxant, a steady state is achieved and the relaxation response measured. […] For example, the EC50 of a relaxant is the effective concentration of the relaxant required to relax a pre-contracted muscle to 50% of its maximum contractile response.
as §1
Example 5 presents the results of the evaluation of the efficacy of the transition metal nitrosyl complexes in blood vessel relaxation. In these in vitro experiments, phenylephrine pre-constricted rat aortae were subjected to increasing doses of the transition-metal nitrosyl complexes, and the relaxation of the rat aortae measured. […]

blood vessels = conditions: cited from earlier work
[3] = tested on: phenylephrine-preconstricted rat aortic rings; assay: Tolerance: relaxation of rat aortic rings after pre-incubation with CpCr(NO)2 Cl or nitroglycerin; set-up: species or system rat (Sprague-Dawley); conditions: 1 h
Source text: In addition to determining efficacy of transition-metal nitrosyl complexes in either in vitro or in vivo tests, it is also generally preferably to determine whether the composition induces tolerance. For example, within one embodiment of the invention, induction of tolerance by the transition-metal nitrosyl complex described above may be readily determined by exposing rat aortic rings to a transition-metal nitrosyl complex prior to relaxation determinations. More specifically, as described in greater detail 10 below in Example 7, intact rat aortic rings were pre-incubated with a typical transition- metal nitrosyl complex for one hour prior to examination of its concentration-relaxation effect in phenylephrine-preconstricted conditions. Unlike the relaxation response of nitroglycerin, the relaxation response of the transition-metal nitrosyl complexes was not diminished by pre-exposure of the aortic ring to the complex.
as §1
Example 7 presents the results of pre-exposing the rat aortae to the transition-metal nitrosyl complexes to evaluate the development of tolerance. In these experiments, the rat aortic rings were pretreated with a transition-metal nitrosyl complex prior to the measurement of dose-dependent relaxation as described above in Example 5.
In this study, the vehicles, CpCr(NO)2 Cl (10^-6 M), or nitroglycerin (3×10^-4 M) was added to the baths for 1 h, followed by the washout of drug or vehicle, preconstriction with phenylephrine and the construction of a concentration-relaxation curve of CpCr(NO)2 Cl.

conscious rats = assay: Toxic dose (convulsion / death) in conscious rats in vivo; set-up: species or system rat (Sprague-Dawley); unit not given here; conditions: intravenous bolus; for Toxic dose: dose which caused neither convulsion nor death: footnote c; for Toxic dose: dose which caused convulsion: footnote a
Source text: as §1
^a denotes dose which caused convulsion
^b denotes dose which caused death
^c denotes dose which caused neither convulsion nor death.
as §2

[4] = pre-incubation nitroglycerin 3×10^-4 M

Row | SMILES | In vivo Emax (maximum decrease in blood pressure) [1] [mmHg] | EC50 [2] [µM] | In vivo ED50 (effective dose to produce a 50% pressure depression response) [1] [mg/kg] | In vitro Emax (percent relaxation of phenylephrine-induced contraction) [2] [%] | Toxic dose: dose which caused convulsion (conscious rats) | further results
1 | O=[N+]([O-])OCC(CO[N+](=O)[O-])O[N+](=O)[O-] [Nitroglycerin, glyceryl trinitrate, reference compound] | -56 | 0.3 | – | – | – | ED50 ([1]; Rattus norvegicus, read-out: In vivo ED50 (effective dose to produce a 50% pressure depression response)): 0.2 mg/kg; maximum depressor effect [1]: -56 mm Hg; Emax ([2]; read-out: In vitro Emax (percent relaxation of phenylephrine-induced contraction)): -104%; tolerance on continual exposure (blood vessels): reduction in the ability of these compounds to vasodilate blood vessels; effect of pre-incubation with nitroglycerin on EC50 [3, 4]: EC50 significantly increased; effect of pre-incubation with nitroglycerin on Emax [3, 4]: Emax unaltered
2 | O=[N][Fe]1([N]=O)[I][Fe]([N]=O)([N]=O)[I]1 [[Fe(NO)2 I]2, Iodo(dinitrosyl)iron Dimer] | -51 | 20 | 0.554 | -108 | – | Toxic dose: dose which caused neither convulsion nor death (conscious rats): 5120
3 | O=N[O][Cr+]([N]=O)[N]=O.c1cc[cH-]c1 [CpCr(NO)2 (ONO), Nitrito(.eta.^5 -cyclopentadienyl)dinitrosylchromium] | -45 | 0.1 | 0.0015 | -98 | 1280 | –
4 | O=[N][W+]([Cl])[N]=O.c1cc[cH-]c1 [CpW(NO)2 Cl] | -36 | 2 | 2.976 | -122 | – | Toxic dose: dose which caused neither convulsion nor death (conscious rats): 40,000
5 | O=[N][Cr+]([Cl])[N]=O.c1cc[cH-]c1 [CpCr(NO)2 Cl] | -42 | 0.11 | 0.0044 | -118 | 2,000 | effect of pre-incubation with CpCr(NO)2 Cl on EC50 and Emax ([3]; pre-incubation CpCr(NO)2 Cl 10^-6 M): did not alter the EC50 or Emax; effect of pre-incubation with nitroglycerin on EC50 and Emax ([3]; pre-incubation nitroglycerin 3×10^-4 M, cross-tolerance): did not alter the EC50 or Emax
6 | O=[N][W+].[C-]#[O+].[C-]#[O+].c1cc[cH-]c1 [CpW(NO)(CO)2, dicarbonyl(.eta.^5 -cyclopentadienyl)nitrosyltungsten] | – | 2.5 | – | -107 | 500 | In vivo Emax (maximum decrease in blood pressure), in words ([1]; biphasic denotes depressor followed by pressor response): biphasic
7 | C1CCNCC1.O=[N][Cr+][I].c1cc[cH-]c1 [CpCr(NO)(pip)I] | – | 0.45 | – | -110 | – | –
8 | O=[N][Mo+]([Cl])[N]=O.c1cc[cH-]c1 [CpMo(NO)2 Cl, chloro(.eta.^5 -cyclopentadienyl)nitrosylmolybdenum] | -59 | 17 | 0.4 | -113 | – | Toxic dose: dose which caused death (conscious rats; footnote b): 25,600
